Measurements as given in PMC10141592, “Stretching Peptides to Generate Small Molecule β-Strand Mimics” (ACS Central Science, 2023).
Values after ≈ are worked out from the molar mass of the structure shown. Like-named read-outs stand apart in the source and are kept apart here. *1 amine or outer side, *2 acyl side, *3 side chain or, on linkers, in order; H or OH if unused. Where a SMILES comes first, the peptide text is derived from it. Bridges are numbered along the chain shown (N, C = ends). [ ]: non-standard residue; d: D form. The star is where a group is joined. Dodecyloxycarbonyl = CCCCCCCCCCCCOC(=O)*; CH2C≡CC≡CCH2 = C(C#CC[*:2])#CC[*:1]; NMePra = C#CC[C@H](NC)C(=O)O; X1 = CCCCCCCCCCCCCCCCOC(=O)*; NMeS = CN[C@@H](CO)C(=O)O; Dab = NCC[C@H](N)C(=O)O; Propargyl = C#CC*

Key:
MRSA USA 300 [1] = format: cell-based; conditions: USA 300, 24 h
Protocol: (§1) Minimum Inhibitory Concentration Assay
(§2) MICs were performed in accordance with the broth microdilution protocol from the Clinical and Standards Laboratory Institute.3 Alkynomycins were dissolved at 10 mg/mL in DMSO and two-fold serial dilutions were made across a 96-well plate containing Muller-Hinton (MH) broth. One plate was used for each indicator organism, and each well reached a final inoculum of 5×10^5 colony forming units per mL. Using OD600 readings normalized to a negative control, MICs were recorded as the lowest concentration at which growth was inhibited after a 24 hr incubation at 37 C. Controls were included on each plate to ensure peptide and media sterility. MICs are reported in Table 2 and Tables S4, S5 as an average of at least three independent trials.
(§3) Indicator organisms were stored at -80 C as glycerol stocks. Each organism was streaked onto tryptic soy agar and grown for 24 hr at 37 C. Single colonies were picked and used to inoculate MH broth. Bacteria culture was diluted to reach an OD600 of 0.015 prior to being used for MIC assays. […]

S. epidermidis RP26a [2] = format: cell-based; conditions: 24 h
Protocol: as §1, §2, §3

[3] = test system: E. coli BAS901 (permeabilized); format: cell-based; conditions: CLSI broth microdilution, Muller-Hinton broth, 5×10^5 CFU/mL, 24 hr at 37 C, OD600, performed in triplicate
Protocol: as §1, §2, §3

E. coli MG1655 [4] = format: cell-based; conditions: MG1655, 24 h
Protocol: as §1, §2, §3

S. epidermidis RP26a [5] = test system: S. epidermidis RP26a; set-up: method as in 2 sources, ref 38 = [38]; PMID 21095572; doi:10.1016/j.chembiol.2010.09.009; Smith P. A.; Roberts T. C.; Romesberg F. E. Broad-spectrum antibiotic activity of the arylomycin natural products is masked by natural target mutations . Chem. Biol. 2010 , 17 ( 11 ), 1223 – 1231 . ||| ref 38 (a number printed in a supplementary file, which may have a reference list of its own: not looked up in the article's list); conditions: previously reported value provided for reference; cited from earlier work
E. coli MG1655 [6] = test system: E. coli MG1655; set-up: method as in 2 sources, ref 38 = [38]; PMID 21095572; doi:10.1016/j.chembiol.2010.09.009; Smith P. A.; Roberts T. C.; Romesberg F. E. Broad-spectrum antibiotic activity of the arylomycin natural products is masked by natural target mutations . Chem. Biol. 2010 , 17 ( 11 ), 1223 – 1231 . ||| ref 38 (a number printed in a supplementary file, which may have a reference list of its own: not looked up in the article's list); conditions: previously reported value provided for reference; cited from earlier work
MRSA USA 300 [7] = conditions: previously reported value provided for reference; cited from earlier work
Text: Table 2 Minimum Inhibitory Concentration of Alkynomycins against Gram-Positive and Gram-Negative Bacteria ^a | column: MRSA

[8] = test system: E. coli BAS901 (permeabilized); conditions: previously reported value provided for reference; cited from earlier work

| Compound | MIC MRSA (MRSA USA 300 [1]) [µg/mL] | MIC S. epidermidis (S. epidermidis RP26a [2]) [µg/mL] | MIC E. coli Δ [3] [µg/mL] | MIC E. coli (E. coli MG1655 [4]) [µg/mL] | MIC S. epidermidis (S. epidermidis RP26a [5]) [µg/mL] | MIC E. coli (E. coli MG1655 [6]) [µg/mL] | MIC MRSA (MRSA USA 300 [7]) [µg/mL] | MIC E. coli Δ [8] [µg/mL] |
| --- | --- | --- | --- | --- | --- | --- | --- | --- |
| CCCCCCCCCCCCOC(=O)N[C@@H](CCN)C(=O)N(C)[C@H]1CC#CC#CC[C@@H](C(N)=O)NC(=O)[C@H](C)NC1=O [Compound 10] | 16 (≈ 26.5 µM) | 4 (≈ 6.64 µM) | 4 (≈ 6.64 µM) | – | – | – | – | – |
| CCCCCCCCCCCCCCCCOC(=O)N[C@@H](CCN)C(=O)N(C)[C@H]1CC#CC#CC[C@@H](C(N)=O)NC(=O)[C@H](C)NC1=O [Compound 11] | 8 (≈ 12.1 µM) | 4 (≈ 6.07 µM) | 4 (≈ 6.07 µM) | > 64 | – | – | – | – |
| CCCCCCCCCCCCOC(=O)N[C@@H](CCN)C(=O)N(C)[C@@H]1CC#CC#CC[C@H](C(N)=O)NC(=O)[C@H](C)NC1=O [Compound 12] | – | 16 (≈ 26.5 µM) | 16 (≈ 26.5 µM) | > 64 | – | – | – | – |
| CCCCCCCCCCCCCCCCOC(=O)N[C@@H](CCN)C(=O)N(C)[C@@H]1CC#CC#CC[C@H](C(N)=O)NC(=O)[C@H](C)NC1=O [Compound 13] | – | 16 (≈ 24.3 µM) | 32 (≈ 48.6 µM) | > 64 | – | – | – | – |
| CCCCCCCCCCCCOC(=O)N[C@@H](CCN)C(=O)N(C)[C@H]1CC#CC#CCOC[C@@H](C(N)=O)NC(=O)[C@H](C)NC1=O [Compound 14] | 16 (≈ 25.3 µM) | 16 (≈ 25.3 µM) | 16 (≈ 25.3 µM) | > 64 | – | – | – | – |
| CCCCCCCCCCCCCCCCOC(=O)N[C@@H](CCN)C(=O)N(C)[C@H]1CC#CC#CCOC[C@@H](C(N)=O)NC(=O)[C@H](C)NC1=O [Compound 15] | 16 (≈ 23.2 µM) | 32 (≈ 46.5 µM) | 16 (≈ 23.2 µM) | > 64 | – | – | – | – |
| CCCCCCCCCCCCOC(=O)N[C@@H](CCN)C(=O)N(C)[C@H]1CC#CC#CC[C@H](C(N)=O)NC(=O)[C@H](C)NC1=O [Compound S1] | – | > 64 | > 64 | > 64 | – | – | – | – |
| CCCCCCCCCCCCCCCCOC(=O)N[C@@H](CCN)C(=O)N(C)[C@H]1CC#CC#CC[C@H](C(N)=O)NC(=O)[C@H](C)NC1=O [Compound S2] | – | > 64 | > 64 | > 64 | – | – | – | – |
| CCCCCCCCCCCCOC(=O)N[C@@H](CCN)C(=O)N(C)[C@H]1COCC#CC#CC[C@@H](C(N)=O)NC(=O)[C@H](C)NC1=O [Compound S3] | – | > 64 | > 64 | > 64 | – | – | – | – |
| CCCCCCCCCCCCCCCCOC(=O)N[C@@H](CCN)C(=O)N(C)[C@H]1COCC#CC#CC[C@@H](C(N)=O)NC(=O)[C@H](C)NC1=O [Compound S4] | – | 64 (≈ 92.9 µM) | 64 (≈ 92.9 µM) | > 64 | – | – | – | – |
| CCCCCCCCCCCCOC(=O)N[C@@H](CCN)C(=O)N(C)[C@H]1COCC#CC#CC[C@H](C(N)=O)NC(=O)[C@H](C)NC1=O [Compound S5] | – | > 64 | > 64 | > 64 | – | – | – | – |
| CCCCCCCCCCCCCCCCOC(=O)N[C@@H](CCN)C(=O)N(C)[C@H]1COCC#CC#CC[C@H](C(N)=O)NC(=O)[C@H](C)NC1=O [Compound S6] | – | 64 (≈ 92.9 µM) | 64 (≈ 92.9 µM) | > 64 | – | – | – | – |
| CCCCCCCCCCCCOC(=O)N[C@@H](CCN)C(=O)N(C)[C@H]1COCC#CC#CCOC[C@@H](C(N)=O)NC(=O)[C@H](C)NC1=O [Compound S7] (Dodecyloxycarbonyl-[Dab][NMeS]AS-NH2; linker 2-4 via CH2C≡CC≡CCH2) | – | > 64 | > 64 | > 64 | – | – | – | – |
| CCCCCCCCCCCCCCCCOC(=O)N[C@@H](CCN)C(=O)N(C)[C@H]1COCC#CC#CCOC[C@@H](C(N)=O)NC(=O)[C@H](C)NC1=O [Compound S8] (X1-[Dab][NMeS]AS-NH2; linker 2-4 via CH2C≡CC≡CCH2) | – | 64 (≈ 89 µM) | 64 (≈ 89 µM) | > 64 | – | – | – | – |
| CCCCCCCCCCCCOC(=O)N[C@@H](CCN)C(=O)N[C@H]1CC#CC#CC[C@@H](C(N)=O)NC(=O)[C@H](C)NC1=O [Compound S9] | – | > 64 | > 64 | > 64 | – | – | – | – |
| C#CCOC[C@H](NC(=O)[C@H](C)NC(=O)[C@H](CC#C)N(C)C(=O)[C@H](CCN)NC(=O)OCCCCCCCCCCCC)C(N)=O [Compound S10] (Dodecyloxycarbonyl-[Dab][NMePra]AS(Propargyl)-NH2) | – | > 64 | – | > 64 | – | – | – | – |
| Arylomycin A-C16 | – | – | – | – | 0.5 | > 64 | 32 | 8 |
